Measurements taken from patent publication US8293705B2, “HCV protease inhibitors and uses thereof” (Avila Therapeutics, Inc., priority 2007, dated 2012).
Where two headings read alike, the source gives them in different places.

Experiments:
[1] = target: T1, HCV NS3/4A 1b protease A156T (Hepatitis C virus genotype 1b, UniProt Q9WMX2, A1182T); assay: HCV protease FRET assay (IC50_APP), Example 16; assay type: biochemical
T1 construct: 10× stocks of NS3/4A protease enzyme from Bioenza (Mountain View, Calif.); purchased Bioenza (Mountain View, Calif.)
Protocol: (§1) The following protocol was used to generate “apparent” IC50 (IC50 APP) values as depicted in Table 6, below. […] 5 μL of each enzyme were added to Corning (#3575) 384-well, black, microtiter plates (Corning, N.Y.) after spotting a 0.5 μL volume of 50% DMSO and serially diluted compounds prepared in 50% DMSO. Protease reactions were immediately started after enzyme addition with the addition of 45 μL of the FRET substrate and monitored for 60-90 minutes at λex485/λem520 in a Synergy^4 plate reader from BioTek (Winooski, Vt.). At the conclusion of each assay, progress curves from each well were examined for linear reaction kinetics and fit statistics (R^2, 95% confidence intervals, absolute sum of squares).
(§2) The compound numbers correspond to the compound numbers in Table 3. […] ;

[2] = target: T2, HCV NS3/4A 1b protease D168A (Hepatitis C virus genotype 1b, UniProt Q9WMX2, D1194A); assay: HCV protease FRET assay (IC50_APP), Example 16; assay type: biochemical
T2 construct: 10× stocks of NS3/4A protease enzyme from Bioenza (Mountain View, Calif.); purchased Bioenza (Mountain View, Calif.)
Protocol: as §1, §2

[3] = target: T3, HCV NS3/4A 1b protease wild type (Hepatitis C virus genotype 1b, UniProt Q9WMX2); assay: HCV protease FRET assay (IC50_APP), Example 16; assay type: biochemical
T3 construct: 10× stocks of NS3/4A protease enzyme from Bioenza (Mountain View, Calif.); purchased Bioenza (Mountain View, Calif.)
Protocol: as §1, §2

[4] = target: T4, HCV NS3/4A wild type (Hepatitis C virus genotype 1b, UniProt Q9WMX2); assay: Mass spectrometric analysis of covalent modification (MALDI-TOF); assay type: binding; conditions: 10× excess of test compound to protein; MALDI-TOF
T4 construct: HCV NS3/4A wild type (wt) was incubated for 1 hr at a 10× fold access of test compound to protein; purchased Bioenza, Calif
Protocol: Mass spectrometric analysis of HCV wild type or HCV variant C159S in the presence of test compound is performed. 100 pmols of HCV wild type (Bioenza, Calif.) is incubated with test compound for 1 hr and 3 hrs at 10-fold access of test compound to protein. 1 ul aliquots of the samples (total volume of 4.24 ul) are diluted with 10 ul of 0.1% TFA prior to micro C4 ZipTipping directly onto the MALDI target using Sinapinic acid as the desorption matrix (10 mg/mL in 0.1% TFA:Acetonitrile 50:50). Analyses are performed on a Shimadzu Biotech Axima TOF2 (Shimadzu Instruments) matrix-assisted-laser desorption/ionization Time-of-Flight (MALDI-TOF) mass spectrometer. The same procedure is carried out on 100 pmols of HCV C159S mutant of HCV protease for 3 hrs at 10-fold excess of test compound to protein.
As depicted in FIGS. 1 and 2, mass spectrometric analysis of HCV wild type in the presence of test compounds I-1 and I-25 was performed using the following protocol: HCV NS3/4A wild type (wt) was incubated for 1 hr at a 10× fold access of test compound to protein. 2 ul aliquots of the samples were diluted with 10 ul of 0.1% TFA prior to micro C4 ZipTipping directly onto the MALDI target using Sinapinic acid as the desorption matrix (10 mg/ml in 0.1% TFA:Acetonitrile 50:50). For intact protein mass measurement the instrument was set in linear mode using a pulsed extraction setting of 24,500 and apomyoglobin as the standard to calibrate the instrument.

[5] = target: T5, HCV NS3/4A 1b protease R155K (Hepatitis C virus genotype 1b, UniProt Q9WMX2, R1181K); assay: HCV protease FRET assay (IC50_APP), Example 16; assay type: biochemical; conditions: reaction started immediately after enzyme addition, read-out: Inhibition (apparent IC50, IC50_APP), HCV R155K
T5 construct: 10× stocks of NS3/4A protease enzyme from Bioenza (Mountain View, Calif.); purchased Bioenza (Mountain View, Calif.)
Protocol: as §1, §2

[6] = system: HCV RNA replicon in cell line ET (luc-ubi-neo/ET), human Huh7 hepatoma; assay: Replicon luciferase assay, Example 26; assay type: cell-based; conditions: Hepatitis C virus, Huh-7, assay of Example 26, 72 hr; for EC50: read-out: Inhibition, Replicon, EC50 value
Protocol: The compounds were assayed to evaluate the antiviral activity and cytotoxicity of compounds using replicon-derived luciferase activity. This assay used the cell line ET (luc-ubi-neo/ET), which is a human Huh7 hepatoma cell line that contains an HCV RNA replicon with a stable luciferase (Luc) reporter and cell culture-adaptive mutations. The ET cell line was grown in a 5% CO2 incubator at 37° C. in Dulbecco's modified essential media (DMEM) supplemented with 2 mM L-glutamine, nonessential amino acids, 100 U of penicillin/ml, 100 μg of streptomycin/mL, and 10% fetal bovine serum. G418 (Geneticin; Invitrogen) was added at a final concentration of 400 ug//mL.
All cell culture reagents were obtained from Invitrogen (Carlsbad). Cells were trypsinized (1% trypsin:EDTA) and plated out at 5×10^3 cells/well in white 96-well assay plates (Costar) dedicated to cell number (cytotoxicity) or antiviral activity assessments. Test compounds were added at six 3-fold concentrations each and the assay was run in DMEM, 5% FBS, 1% pen-strep, 1% glutamine, 1% non essential amino acid. Human interferon alpha-2b (PBL Biolabs, New Brunswick, N.J.) was included in each run as a positive control compound. Cells were processed 72 hr post test compound addition when the cells were still subconfluent. Antiviral activity was measured by analyzing replicon-derived luciferase activity using the Steady-Glo Luciferase Assay System (Promega, Madison, Wis.) according to manufacturer's instruction. The number of cells in each well was determined by Cell Titer Blue Assay (Promega). Compound profile was derived by calculating applicable EC50 (effective concentration inhibiting virus replication by 50%), EC90 (effective concentration inhibiting virus replication by 90%), IC50 (concentration decreasing cell viability by 50%) and SI50 (selective index: […]) values.

## C=CC(=O)N[C@H](C)C(=O)N1C[C@H](OC(=O)N2Cc3cccc(F)c3C2)C[C@H]1C(=O)N[C@]1(C(=O)NS(=O)(=O)C2CC2)C[C@H]1C=C [Compound I-8, (3R,5S)-1-((R)-2-acrylamidopropanoyl)-5-((1R,2S)-1-(cyclopropylsulfonylcarbamoyl)-2-vinylcyclopropylcarbamoyl)pyrrolidin-3-yl-4-fluoroisoindoline-2-carboxylate]
[1]
  IC50: < 10 nM
[2]
  IC50: < 10 nM
[3]
  IC50: < 10 nM
[4]
  Covalent modification of HCV NS3/4A wild type: measurable covalent modification

## C=CC(=O)N[C@@H](C(=O)N1C[C@H](OC(=O)N2Cc3cccc(F)c3C2)C[C@H]1C(=O)N[C@]1(C(=O)NS(=O)(=O)C2CC2)C[C@H]1C=C)C(C)C [Compound I-9, (3R,5S)-1-((R)-2-acrylamido-3-methylbutanoyl)-5-((1R,2S)-1-(cyclopropylsulfonylcarbamoyl)-2-vinylcyclopropylcarbamoyl)pyrrolidin-3-yl-4-fluoroisoindoline-2-carboxylate]
[1]
  IC50: < 10 nM
[2]
  IC50: 10 to 100 nM
[3]
  IC50: < 10 nM
[4]
  Covalent modification of HCV NS3/4A wild type: measurable covalent modification

## C=C[C@@H]1C[C@]1(NC(=O)[C@@H]1C[C@@H](OC(=O)N2Cc3cccc(F)c3C2)CN1C(=O)CNC(=O)c1ccccc1OC(C)=O)C(=O)NS(=O)(=O)C1CC1 [Compound I-10, (3R,5S)-1-(2-(2-acetoxybenzamido)acetyl)-5-((1R,2S)-1-(cyclopropylsulfonylcarbamoyl)-2-vinylcyclopropylcarbamoyl)pyrrolidin-3-yl-4-fluoroisoindoline-2-carboxylate]
[1]
  IC50: 1000 to 10000 nM
[2]
  IC50: 1000 to 10000 nM
[3]
  IC50: 100 to 1000 nM
[4]
  Covalent modification of HCV NS3/4A wild type: measurable covalent modification

## C=C[C@@H]1C[C@]1(NC(=O)[C@@H]1CC(OC(=O)N2Cc3cccc(F)c3C2)CN1C(=O)[C@H](CCC(=O)/C=C/C)NC(=O)OC(C)(C)C)C(=O)NS(=O)(=O)C1CC1 (stereo partly shown) [Compound I-26]
[1]
  IC50: < 10 nM
[2]
  IC50: < 10 nM
[3]
  IC50: < 10 nM
[4]
  Covalent modification of HCV NS3/4A wild type: measurable covalent modification

## CC(C)(C)OC(=O)N[C@H]1CCCN(S(=O)(=O)c2ccccc2[N+](=O)[O-])C/C=C\[C@@H]2C[C@@]2(C(=O)NS(=O)(=O)C2CC2)NC(=O)[C@@H]2CC(OC(=O)N3Cc4cccc(F)c4C3)CN2C1=O (stereo partly shown) [Compound I-54]
[2]; read-out: Inhibition (apparent IC50, IC50_APP), HCV D168A, FRET, reaction started immediately after enzyme addition
  IC50: 10 to 100 nM
[5]
  IC50: 10 to 100 nM
[3]; read-out: Inhibition (apparent IC50, IC50_APP), WT, FRET, reaction started immediately after enzyme addition
  IC50: < 10 nM
[6]
  EC50: 100 to 1000 nM
[6]; read-out: Inhibition, Replicon, EC90 value
  EC90: > 10000 nM

## C=C[C@@H]1C[C@]1(NC(=O)[C@@H]1C[C@@H]2CN1C(=O)[C@H](CCC(=O)C=C(C)C)NC(=O)OCC(C)(C)CC/C=C/c1cccc3c1CN(C3)C(=O)O2)C(=O)NS(=O)(=O)C1CC1 [Compound I-55]
[1]
  IC50: < 10 nM
[2]
  IC50: 10 to 100 nM
[5]
  IC50: 10 to 100 nM
[3]
  IC50: < 10 nM
[6]
  EC50: < 10 nM

## CC[C@@H]1C[C@]1(NC(=O)[C@@H]1C[C@@H]2CN1C(=O)[C@H](CCC(=O)C=C(C)C)NC(=O)OCC(C)(C)CC/C=C/c1cccc3c1CN(C3)C(=O)O2)C(=O)NS(=O)(=O)C1CC1 [Compound I-56]
[2]
  IC50: 100 to 1000 nM
[5]
  IC50: 100 to 1000 nM
[3]
  IC50: < 10 nM
[6]
  EC50: < 10 nM

## C=C[C@@H]1C[C@]1(NC(=O)[C@@H]1CC(OC(=O)N2Cc3cccc(F)c3C2)CN1C(=O)[C@H](CC(=O)C(=C)C)NC(=O)OC(C)(C)C)C(=O)NS(=O)(=O)C1CC1 (stereo partly shown) [Compound I-68]
[2]
  IC50: < 10 nM
[5]
  IC50: < 10 nM
[3]
  IC50: < 10 nM
[6]
  EC50: 100 to 1000 nM

## C=C(C)C(=O)C[C@H](NC(=O)OC(C)(C)C)C(=O)N1CC(OC(=O)N2Cc3cccc(F)c3C2)C[C@H]1C(=O)N[C@]1(C(=O)NS(=O)(=O)C2CC2)C[C@H]1CC (stereo partly shown) [Compound I-69]
[2]
  IC50: 10 to 100 nM
[5]
  IC50: < 10 nM
[3]
  IC50: < 10 nM
[6]
  EC50: 100 to 1000 nM

## C=C[C@@H]1C[C@]1(NC(=O)[C@@H]1CC(OC(=O)N2Cc3cccc(F)c3C2)CN1C(=O)[C@H](CCC(=O)/C=C\C(C)(C)C)NC(=O)OC(C)(C)C)C(=O)NS(=O)(=O)C1CC1 (stereo partly shown) [Compound I-71]
[2]
  IC50: 100 to 1000 nM
[5]
  IC50: 100 to 1000 nM
[3]
  IC50: < 10 nM
[6]
  EC50: < 10 nM

## C=C[C@@H]1C[C@]1(NC(=O)[C@@H]1C[C@@H]2CN1C(=O)[C@H](CC(=O)C=C(C)C)NC(=O)OCC(C)(C)CC/C=C/c1cccc3c1CN(C3)C(=O)O2)C(=O)NS(=O)(=O)C1CC1 [Compound I-79]
[2]
  IC50: 10 to 100 nM
[5]
  IC50: < 10 nM
[3]
  IC50: < 10 nM
[6]
  EC50: < 10 nM
